Experimental findings from patent publication US12233105B1, “Methods for storing and warming purified corticotropin compositions” (ANI Pharmaceuticals, Inc., priority 2022, dated 2025) are described below.

In this series the test system is THP-1 Blue, Raw Blue, HEK-blue hTLR3, HEK-Blue hTLR4, HEK-Blue hNOD2. Kind of series: Innate immune response activation assays in TLR/NOD2 reporter cell lines. It counts as cell-based. To be noted: 5 cell lines covering TLR and NOD2 expression; 3 PPQ lots; highest drug substance concentration tested 10 μg/mL. Here is the method:
Method development, qualification, and testing for activation of innate immune response was performed. The innate immune assays performed compared 3 PPQ lots. The work was conducted using 5 cell lines to cover TLR and NOD2 expression (THP-1 Blue, Raw Blue, HEK-blue hTLR3, HEK-Blue hTLR4, HEK-Blue hNOD2). […] The highest drug substance concentration tested was 10 μg/mL. A dose of the sterile preparation of purified corticotropin at 80 U is, equivalent to approximately 1 mg of drug substance per total body weight of subject.

Turning to `CC(=O)N[C@@H]1[C@@H](O[C@H](C)C(=O)N[C@@H](C)C(=O)N[C@H](CCC(=O)O)C(N)=O)[C@H](O)[C@@H](CO)O[C@H]1O` [MDP], the “dose response for activation of innate immune response” value was “robust dose responses”. To `CCCc1nc2c(N)nc3ccccc3c2s1` [CL075] belongs “robust dose responses”.
